Source: article PMC4645160, “Targeting kinases with anilinopyrimidines: discovery of N-phenyl-N’-[4-(pyrimidin-4-ylamino)phenyl]urea derivatives as selective inhibitors of class III receptor tyrosine kinase subfamily” (Scientific Reports, 2015)

How the values were obtained:
[1] = system: HEK293 cells; test: MTT cytotoxicity assay, non-tumor HEK293 cells; format: cell-based, human; details: for IC50: Homo sapiens, HEK293, MTT test, 72 h, non-tumor cells, read-out: HEK293 IC50 (μM) ± SD
Procedure: F. Zunino (Division of Experimental Oncology B, Istituto Nazionale dei Tumori, Milan, Italy).
The growth inhibitory effect towards human cell lines was evaluated by means of MTT (tetrazolium salt reduction) assay. […] Triplicate cultures were established for each treatment.

[2] = system: A549 cells; test: MTT cytotoxicity assay, A549 lung cancer cells; format: cell-based, human; details: for IC50: Homo sapiens, A549, 72 h, MTT test, 72 h of drug treatment, read-out: A549 IC50 (μM) ± SD
Procedure: Compounds active against at least one kinase among EGFR and class III RTKs were evaluated for their cytotoxic properties against two different human cancer cell lines, namely non small cells A549 lung cancer cells (sensitive to EGFR inhibitors)[46] and pancreatic BxPC3 adenocarcinoma (sensitive to both PDGFRβ and EGFR inhibitors)[47][48] cells. […] The results, expressed as IC50 values (μM) calculated from the dose-survival curves obtained after 72 h of drug treatment from the MTT test, are reported in Table 1.
All compounds, except derivative 27, were dissolved in DMSO just before the experiment, and a calculated amount of drug solution was added to the cell growth medium to a final solvent concentration of 0.5%, which had no discernible effect on cell killing. Compound 27 was dissolved in a 0.9% NaCl solution just before the experiment.
Human lung (A549), breast (MCF-7), pancreas (BxPC3), and colon (LoVo) carcinoma cell lines along with melanoma (A375) were obtained from American Type Culture Collection (ATCC, Rockville, MD). Human non-tumor embryonic kidney HEK293 cells were obtained from European Collection of Cell Cultures (ECACC, Salisbury, UK). Human cervical carcinoma A431cells were kindly provided by Prof. F. Zunino (Division of Experimental Oncology B, Istituto Nazionale dei Tumori, Milan, Italy). Human ovarian cancer 2008 cells were kindly provided by Prof. G. Marverti (Dept. of Biomedical Science of Modena University, Italy). Cell lines were maintained in the logarithmic phase at 37 °C in a 5% carbon dioxide atmosphere using the following culture media containing 10% fetal calf serum (Euroclone, Milan, Italy), antibiotics (50 units ∙ mL^−1 penicillin and 50 μg ∙ mL^−1 streptomycin) and 2 mM l-glutamine: i) RPMI-1640 medium (Euroclone) for MCF-7, A431, BxPC3 and 2008 cells; ii) F-12 HAM’S (Sigma Chemical Co.) for A549 and LoVo cells; iii) D-MEM medium (Euroclone) for HEK293 cells.
The growth inhibitory effect towards human cell lines was evaluated by means of MTT (tetrazolium salt reduction) assay. Briefly, 3–8 ∙ 10^3 cells/well, dependent upon the growth characteristics of the cell line, were seeded in 96-well microplates in growth medium (100 μL) and then incubated at 37 °C in a 5% carbon dioxide atmosphere. After 24 h, the medium was removed and replaced with a fresh one containing the test compound at the appropriate concentration. Triplicate cultures were established for each treatment. After 72 h, each well was treated with 10 μL of a 5 mg ∙ mL-1 MTT (3-(4,5-dimethylthiazol-2-yl)-2,5-diphenyltetrazolium bromide) saline solution, and after 5 h additional incubation, 100 μL of a sodium dodecylsulfate (SDS) solution in HCl 0.01 M were added. After overnight incubation, the inhibition of cell growth induced by the tested complexes was detected by measuring the absorbance of each well at 570 nm using a Bio-Rad 680 microplate reader (Bio-Rad, Hercules, CA). Mean absorbance for each drug dose was expressed as a percentage of the control untreated well absorbance and plotted vs drug concentration.

SMILES | IC50 [1] [µM] | Selectivity Index ([1]; IC50 toward non cancerous HEK293 cells divided by the average IC50 for the malignant cells (A549, BxPC3)) | Selectivity index, folds higher than that calculated with SU ([1]; SI of compound versus SI of SU) | IC50 [2] [µM] | Potency relative to SU (A549) ([2]; ratio between IC50 of sunitinib and IC50 of tested compound, A549)
O=C(Nc1ccccc1)Nc1ccc(Nc2cc(-c3ccccc3)ncn2)cc1 [Compound 19] | 7.33 ± 1.75 | 3.84 | approximately 1.5 | 3.16 ± 1.12 | 1.97
O=C(CN1CCOCC1)Nc1cccc(-c2cc(Nc3ccc(NC(=O)Nc4ccccc4)cc3)ncn2)c1 [Compound 27] | 10 |  |  | 3.11 ± 1.09 | 
